Measurements: ChEMBL document CHEMBL5579822, “Targeting cyclin-dependent kinases: From pocket specificity to drug selectivity” (Eur J Med Chem, 2024)
Blank lines part the entries; values can stand above or below the molecule they belong to.

Columns and labels:
CDK12/Cyclin K = CDK12/Cyclin K (Homo sapiens, UniProt Q9NYV4)
[1] = biological target: Cyclin-dependent kinase 13 (Homo sapiens, UniProt Q14004)
[2] = biological target: Cyclin-dependent kinase 13/Cyclin-K (Homo sapiens, UniProt Q14004)
[3] = biological target: T1, Cyclin-dependent kinase 7 (Homo sapiens, UniProt P50613); assay: biochemical
T1 sequence (P50613 whole entry): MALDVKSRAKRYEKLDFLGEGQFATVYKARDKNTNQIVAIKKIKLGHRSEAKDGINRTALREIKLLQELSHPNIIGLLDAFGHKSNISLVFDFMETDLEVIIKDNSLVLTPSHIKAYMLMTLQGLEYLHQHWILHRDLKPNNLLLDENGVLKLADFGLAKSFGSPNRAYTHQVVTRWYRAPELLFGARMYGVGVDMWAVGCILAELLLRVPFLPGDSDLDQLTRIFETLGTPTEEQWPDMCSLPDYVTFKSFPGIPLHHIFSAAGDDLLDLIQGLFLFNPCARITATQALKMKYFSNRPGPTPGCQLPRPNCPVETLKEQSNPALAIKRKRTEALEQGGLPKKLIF

[4] = biological target: T1, Cyclin-dependent kinase 7
[5] = biological target: T2, Cyclin-dependent kinase 4 (Homo sapiens, UniProt P11802)
T2 sequence (P11802 whole entry): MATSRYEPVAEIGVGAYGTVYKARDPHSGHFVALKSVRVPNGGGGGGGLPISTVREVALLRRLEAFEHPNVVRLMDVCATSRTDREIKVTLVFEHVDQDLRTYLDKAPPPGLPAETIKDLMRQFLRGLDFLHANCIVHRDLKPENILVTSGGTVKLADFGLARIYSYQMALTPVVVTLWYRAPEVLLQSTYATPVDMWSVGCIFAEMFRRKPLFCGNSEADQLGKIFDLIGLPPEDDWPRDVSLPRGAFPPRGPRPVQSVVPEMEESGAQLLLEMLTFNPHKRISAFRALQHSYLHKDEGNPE

[6] = biological target: T3, Cyclin-dependent kinase 9 (Homo sapiens, UniProt P50750)
T3 sequence (P50750 whole entry): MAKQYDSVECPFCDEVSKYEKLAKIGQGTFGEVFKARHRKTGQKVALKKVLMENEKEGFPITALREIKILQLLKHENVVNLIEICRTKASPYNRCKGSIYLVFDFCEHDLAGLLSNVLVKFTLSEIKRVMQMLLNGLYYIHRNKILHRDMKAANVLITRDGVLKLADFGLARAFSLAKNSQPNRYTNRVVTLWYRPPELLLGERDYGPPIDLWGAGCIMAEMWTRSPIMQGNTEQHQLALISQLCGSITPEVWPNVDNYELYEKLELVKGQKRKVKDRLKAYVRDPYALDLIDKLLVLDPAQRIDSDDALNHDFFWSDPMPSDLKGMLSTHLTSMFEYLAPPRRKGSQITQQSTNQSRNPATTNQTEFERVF

[7] = biological target: T4, Cyclin-dependent kinase 2 (Homo sapiens, UniProt P24941)
[8] = biological target: T5, Cyclin-dependent kinase 6 (Homo sapiens, UniProt Q00534)
T5 sequence (Q00534 whole entry): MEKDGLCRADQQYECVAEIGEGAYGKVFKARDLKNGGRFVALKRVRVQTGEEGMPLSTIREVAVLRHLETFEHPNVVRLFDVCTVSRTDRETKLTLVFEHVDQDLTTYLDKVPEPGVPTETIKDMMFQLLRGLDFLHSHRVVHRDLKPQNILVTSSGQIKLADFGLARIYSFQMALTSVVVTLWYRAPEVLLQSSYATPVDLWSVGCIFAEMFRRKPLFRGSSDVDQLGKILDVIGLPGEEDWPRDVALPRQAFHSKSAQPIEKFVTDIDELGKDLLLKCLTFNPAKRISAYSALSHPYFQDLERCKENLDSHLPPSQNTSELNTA

[9] = biological target: Cyclin-dependent kinase 1 (Homo sapiens, UniProt P06493)
Cyclin-dependent kinase 1, sequence (P06493 whole entry): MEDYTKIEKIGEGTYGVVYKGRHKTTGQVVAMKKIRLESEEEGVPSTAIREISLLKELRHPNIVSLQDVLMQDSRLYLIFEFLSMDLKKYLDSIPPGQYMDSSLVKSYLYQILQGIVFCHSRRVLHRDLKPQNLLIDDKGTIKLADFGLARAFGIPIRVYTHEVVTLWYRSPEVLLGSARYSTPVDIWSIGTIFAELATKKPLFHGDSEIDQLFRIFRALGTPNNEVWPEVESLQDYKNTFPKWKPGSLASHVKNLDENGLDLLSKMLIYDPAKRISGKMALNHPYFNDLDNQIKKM

[10] = biological target: T2, Cyclin-dependent kinase 4; assay: Binding affinity to CDK4 (unknown origin) assessed as inhibition constant
[11] = biological target: T5, Cyclin-dependent kinase 6; assay: Binding affinity to CDK6 (unknown origin) assessed as inhibition constant
[12] = biological target: T4, Cyclin-dependent kinase 2; assay: Binding affinity to CDK2 (unknown origin) extracted from insect cells assessed as inhibition constant; assay type: cell-free, Insect cell
[13] = biological target: T3, Cyclin-dependent kinase 9; assay: Binding affinity to CDK9 (unknown origin) assessed as inhibition constant
[14] = biological target: T3, Cyclin-dependent kinase 9; remark: listed apart in the source
[15] = biological target: T4, Cyclin-dependent kinase 2; remark: listed apart in the source
[16] = biological target: T2, Cyclin-dependent kinase 4; remark: listed apart in the source
[17] = biological target: Cyclin-dependent kinase 5 (Homo sapiens, UniProt Q00535)
Cyclin-dependent kinase 5, sequence (Q00535 whole entry): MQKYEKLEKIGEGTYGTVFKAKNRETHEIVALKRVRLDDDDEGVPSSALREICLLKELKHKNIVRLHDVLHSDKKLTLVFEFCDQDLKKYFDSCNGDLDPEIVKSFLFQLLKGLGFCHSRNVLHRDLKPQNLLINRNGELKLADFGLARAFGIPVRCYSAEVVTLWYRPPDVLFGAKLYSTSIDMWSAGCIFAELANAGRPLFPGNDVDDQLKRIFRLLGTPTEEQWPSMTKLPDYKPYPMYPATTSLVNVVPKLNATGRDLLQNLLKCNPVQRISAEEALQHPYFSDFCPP

[18] = biological target: T5, Cyclin-dependent kinase 6; remark: listed apart in the source

CDK12/Cyclin K, sequence (O75909 whole entry): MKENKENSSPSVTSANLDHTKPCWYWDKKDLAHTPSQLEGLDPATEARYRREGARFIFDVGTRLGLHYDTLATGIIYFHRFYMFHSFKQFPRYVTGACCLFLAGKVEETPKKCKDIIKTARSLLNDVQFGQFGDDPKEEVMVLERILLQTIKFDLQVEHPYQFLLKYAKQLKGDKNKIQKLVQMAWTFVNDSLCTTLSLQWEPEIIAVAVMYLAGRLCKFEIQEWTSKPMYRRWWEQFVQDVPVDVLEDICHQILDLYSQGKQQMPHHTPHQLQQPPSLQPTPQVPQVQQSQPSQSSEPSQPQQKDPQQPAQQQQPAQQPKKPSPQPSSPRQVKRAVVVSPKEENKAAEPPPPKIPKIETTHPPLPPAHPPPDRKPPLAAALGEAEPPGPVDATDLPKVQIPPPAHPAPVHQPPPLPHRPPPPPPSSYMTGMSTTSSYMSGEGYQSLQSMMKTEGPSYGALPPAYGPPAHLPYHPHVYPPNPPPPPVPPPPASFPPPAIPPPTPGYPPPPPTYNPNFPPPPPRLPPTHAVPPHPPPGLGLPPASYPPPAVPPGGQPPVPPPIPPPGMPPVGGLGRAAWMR
CDK12/Cyclin K, sequence (Q9NYV4 whole entry): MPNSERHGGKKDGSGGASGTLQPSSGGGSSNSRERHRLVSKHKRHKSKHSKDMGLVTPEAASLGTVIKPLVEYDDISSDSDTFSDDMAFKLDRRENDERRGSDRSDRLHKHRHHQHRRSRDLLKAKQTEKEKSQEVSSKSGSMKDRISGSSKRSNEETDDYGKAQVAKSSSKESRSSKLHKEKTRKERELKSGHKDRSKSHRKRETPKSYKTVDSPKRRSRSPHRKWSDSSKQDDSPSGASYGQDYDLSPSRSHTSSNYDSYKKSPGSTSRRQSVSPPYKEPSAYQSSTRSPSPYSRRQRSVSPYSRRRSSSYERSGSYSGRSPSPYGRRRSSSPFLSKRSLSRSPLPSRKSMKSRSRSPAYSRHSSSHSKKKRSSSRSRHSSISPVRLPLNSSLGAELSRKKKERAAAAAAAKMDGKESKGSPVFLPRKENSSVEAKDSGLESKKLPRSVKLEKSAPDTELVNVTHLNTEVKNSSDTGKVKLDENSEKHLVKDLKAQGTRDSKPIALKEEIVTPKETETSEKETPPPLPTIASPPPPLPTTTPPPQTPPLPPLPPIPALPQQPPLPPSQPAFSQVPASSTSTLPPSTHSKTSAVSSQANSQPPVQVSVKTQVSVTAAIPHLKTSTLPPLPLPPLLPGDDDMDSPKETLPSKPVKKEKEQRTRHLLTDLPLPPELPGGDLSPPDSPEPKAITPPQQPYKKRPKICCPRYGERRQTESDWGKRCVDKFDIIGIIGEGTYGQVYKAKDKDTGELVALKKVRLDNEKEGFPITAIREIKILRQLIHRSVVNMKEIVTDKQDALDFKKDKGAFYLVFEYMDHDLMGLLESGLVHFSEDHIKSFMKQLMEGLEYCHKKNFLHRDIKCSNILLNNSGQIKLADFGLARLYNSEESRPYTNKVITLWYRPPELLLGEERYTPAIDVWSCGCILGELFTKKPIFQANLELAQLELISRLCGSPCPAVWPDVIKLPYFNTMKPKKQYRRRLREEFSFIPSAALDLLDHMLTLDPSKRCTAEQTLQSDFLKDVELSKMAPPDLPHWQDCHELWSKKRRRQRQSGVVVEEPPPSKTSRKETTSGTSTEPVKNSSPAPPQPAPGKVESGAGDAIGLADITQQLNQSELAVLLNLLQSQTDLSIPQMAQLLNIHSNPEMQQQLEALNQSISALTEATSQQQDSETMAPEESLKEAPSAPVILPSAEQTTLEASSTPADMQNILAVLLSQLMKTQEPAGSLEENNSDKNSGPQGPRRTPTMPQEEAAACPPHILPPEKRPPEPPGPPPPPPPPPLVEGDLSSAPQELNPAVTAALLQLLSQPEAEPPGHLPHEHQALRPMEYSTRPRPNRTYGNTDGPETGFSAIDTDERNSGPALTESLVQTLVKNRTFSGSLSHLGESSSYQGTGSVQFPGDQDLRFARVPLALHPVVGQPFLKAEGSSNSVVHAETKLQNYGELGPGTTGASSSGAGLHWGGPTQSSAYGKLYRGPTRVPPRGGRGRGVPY

EC50 (CDK12/Cyclin K): 12 nM
Compound: CC(C)c1nn(-c2c(Cl)cccc2Cl)c2nc(Cc3ccc(OCCO)cc3)[nH]c(=O)c12

IC50 [3]: 0.33 nM
Compound: Clc1cnc(N[C@H]2CCCNC2)nc1-c1c[nH]c2ccccc12

IC50 [5]: > 10000 nM
Kd [6]: > 10000 nM
IC50 [7]: > 10000 nM
Kd [8]: > 10000 nM
IC50 [9]: < 10000 nM
Compound: Cn1cc(-n2cnc3c(NCc4nc5cc(Cl)c(Cl)cc5[nH]4)nc(N4CCOCC4)nc32)cn1

EC50 (CDK12/Cyclin K): 9 nM
Compound: CC(C)n1cnc2c(NCc3nc4cc(Cl)c(Cl)cc4[nH]3)nc(N3CCOCC3)nc21

Second part, the molecule before the results:

Compound: CN(C)C/C=C/C(=O)Nc1ccc(C(=O)Nc2cccc(Nc3ncc(Cl)c(-c4c[nH]c5ccccc45)n3)c2)cc1
IC50 [1]: 620 nM

Compound: CN(C)C/C=C/C(=O)Nc1ccc(C(=O)N2CCC[C@@H](Nc3ncc(Cl)c(-c4c[nH]c5ccccc45)n3)C2)cc1
IC50 [2]: 690 nM

Compound: CN(C)C/C=C/C(=O)Nc1ccc(C(=O)N[C@@]2(C)CCC[C@@H](Nc3ncc(Cl)c(-c4c[nH]c5ccccc45)n3)C2)nc1
IC50 [4]: 80 nM

Compound: CC(=O)c1c(C)c2cnc(NC3CCN(S(C)(=O)=O)CC3)nc2n(C2CCCC2)c1=O
Ki [10]: 0.2 nM
Ki [11]: 0.2 nM
Ki [12]: 5.9 nM
Ki [13]: 9.6 nM

Compound: N[C@H]1CCN(c2c3c(nc4ccc(-c5ccnc(NC(=O)C6CC6)c5)cc24)CCCC3)C1
IC50 [14]: 2 nM

Compound: N[C@H]1CCN(c2c3c(nc4ccc(-c5ccncc5)cc24)CCCC3)C1
IC50 [15]: > 500 nM
IC50 [14]: 8 nM

Compound: CC(C)c1cnn2c(NCc3ccccc3)cc(NC[C@H]3CCNC[C@@H]3O)nc12 [CT-7001]
IC50 [16]: > 9400 nM
IC50 [17]: > 9400 nM
IC50 [18]: > 9400 nM
